The NIST ThermoML archive (doi:10.1021/acs.jced.8b00132)
Where “and” joins values, the source holds several entries; their conditions need not be identical. Equal values may be shown once. Numbers after ± are expanded uncertainties.

Settings: Liquid, transient hot wire

SMILES: O=C(C(F)(F)C(F)(F)F)C(F)(C(F)(F)F)C(F)(F)F [dodecafluoro-2-methylpentan-3-one]
- thermal conductivity (192.97 K, 9415 kPa): 0.07862 ± 0.0016 W/m/K
- thermal conductivity (192.97 K, 9417 kPa): 0.07861 ± 0.0016 W/m/K
- thermal conductivity (192.98 K, 6038 kPa): 0.0783 ± 0.0016 W/m/K
- thermal conductivity (192.98 K, 6049 kPa): 0.07834 ± 0.0016 W/m/K
- thermal conductivity (192.99 K, 167 kPa): 0.07692 ± 0.0016 W/m/K
- thermal conductivity (192.99 K, 173 kPa): 0.07695 ± 0.0016 W/m/K
- thermal conductivity (193 K, 151 kPa): 0.07702 ± 0.0016 W/m/K
- thermal conductivity (193 K, 154 kPa): 0.07718 ± 0.0016 W/m/K
- thermal conductivity (193.29 K, 67553 kPa): 0.08802 ± 0.0018 W/m/K
- thermal conductivity (193.29 K, 67565 kPa): 0.0877 ± 0.0018 W/m/K
- thermal conductivity (193.3 K, 61029 kPa): 0.08639 ± 0.0018 W/m/K
- thermal conductivity (193.31 K, 52610 kPa): 0.086 ± 0.0018 W/m/K
- thermal conductivity (193.31 K, 52615 kPa): 0.08604 ± 0.0018 W/m/K
- thermal conductivity (193.31 K, 61018 kPa): 0.08674 ± 0.0018 W/m/K
- thermal conductivity (193.33 K, 44206 kPa): 0.08413 ± 0.0017 W/m/K
- thermal conductivity (193.33 K, 44213 kPa): 0.08424 ± 0.0017 W/m/K
- thermal conductivity (193.35 K, 36147 kPa): 0.08312 ± 0.0017 W/m/K
- thermal conductivity (193.35 K, 36154 kPa): 0.08322 ± 0.0017 W/m/K
- thermal conductivity (193.37 K, 28301 kPa): 0.08185 ± 0.0017 W/m/K
- thermal conductivity (193.37 K, 28302 kPa): 0.08165 ± 0.0017 W/m/K
- thermal conductivity (193.42 K, 20237 kPa): 0.08068 ± 0.0017 W/m/K
- thermal conductivity (193.43 K, 20237 kPa): 0.08099 ± 0.0017 W/m/K
- thermal conductivity (193.45 K, 13265 kPa): 0.07982 ± 0.0016 W/m/K
- thermal conductivity (193.45 K, 13266 kPa): 0.07945 ± 0.0016 W/m/K
- thermal conductivity (193.48 K, 6427 kPa): 0.07813 ± 0.0016 W/m/K
- thermal conductivity (193.48 K, 6455 kPa): 0.07812 ± 0.0016 W/m/K
- thermal conductivity (193.51 K, 179 kPa): 0.07701 ± 0.0016 W/m/K
- thermal conductivity (193.52 K, 180 kPa): 0.07688 ± 0.0016 W/m/K
- thermal conductivity (211.41 K, 165 kPa): 0.07448 ± 0.0015 W/m/K
- thermal conductivity (211.41 K, 170 kPa): 0.07442 ± 0.0015 W/m/K
- thermal conductivity (211.41 K, 5799 kPa): 0.07599 ± 0.0016 W/m/K
- thermal conductivity (211.41 K, 5800 kPa): 0.0759 ± 0.0016 W/m/K
- thermal conductivity (211.41 K, 12664 kPa): 0.07737 ± 0.0016 W/m/K
- thermal conductivity (211.41 K, 12666 kPa): 0.07746 ± 0.0016 W/m/K
- thermal conductivity (211.41 K, 19434 kPa): 0.07882 ± 0.0016 W/m/K and 0.07893 ± 0.0016 W/m/K
- thermal conductivity (211.43 K, 26838 kPa): 0.08023 ± 0.0016 W/m/K
- thermal conductivity (211.43 K, 26842 kPa): 0.08059 ± 0.0017 W/m/K
- thermal conductivity (211.43 K, 34778 kPa): 0.08175 ± 0.0017 W/m/K
- thermal conductivity (211.43 K, 34786 kPa): 0.0823 ± 0.0017 W/m/K
- thermal conductivity (211.76 K, 52040 kPa): 0.08466 ± 0.0017 W/m/K
- thermal conductivity (211.76 K, 52042 kPa): 0.08451 ± 0.0017 W/m/K
- thermal conductivity (211.77 K, 60806 kPa): 0.08612 ± 0.0018 W/m/K
- thermal conductivity (211.77 K, 60808 kPa): 0.0862 ± 0.0018 W/m/K
- thermal conductivity (211.77 K, 67154 kPa): 0.087 ± 0.0018 W/m/K
- thermal conductivity (211.78 K, 67150 kPa): 0.08734 ± 0.0018 W/m/K
- thermal conductivity (211.8 K, 12660 kPa): 0.07728 ± 0.0016 W/m/K
- thermal conductivity (211.8 K, 19446 kPa): 0.07881 ± 0.0016 W/m/K
- thermal conductivity (211.8 K, 19450 kPa): 0.07869 ± 0.0016 W/m/K
- thermal conductivity (211.81 K, 173 kPa): 0.07406 ± 0.0015 W/m/K
- thermal conductivity (211.81 K, 5801 kPa): 0.07566 ± 0.0016 W/m/K
- thermal conductivity (211.81 K, 5813 kPa): 0.07576 ± 0.0016 W/m/K
- thermal conductivity (211.81 K, 12660 kPa): 0.0775 ± 0.0016 W/m/K
- thermal conductivity (211.81 K, 26841 kPa): 0.07965 ± 0.0016 W/m/K
- thermal conductivity (211.81 K, 26845 kPa): 0.08017 ± 0.0016 W/m/K
- thermal conductivity (211.81 K, 34792 kPa): 0.08166 ± 0.0017 W/m/K
- thermal conductivity (211.81 K, 34801 kPa): 0.08137 ± 0.0017 W/m/K
- thermal conductivity (211.81 K, 43011 kPa): 0.08307 ± 0.0017 W/m/K
- thermal conductivity (211.81 K, 43012 kPa): 0.0834 ± 0.0017 W/m/K
- thermal conductivity (211.82 K, 163 kPa): 0.07354 ± 0.0015 W/m/K
- thermal conductivity (212.17 K, 60783 kPa): 0.08526 ± 0.0018 W/m/K
- thermal conductivity (212.17 K, 60795 kPa): 0.08562 ± 0.0018 W/m/K
- thermal conductivity (212.17 K, 67130 kPa): 0.08706 ± 0.0018 W/m/K
- thermal conductivity (212.18 K, 52048 kPa): 0.08429 ± 0.0017 W/m/K
- thermal conductivity (212.18 K, 52063 kPa): 0.08422 ± 0.0017 W/m/K
- thermal conductivity (212.18 K, 67138 kPa): 0.08699 ± 0.0018 W/m/K
- thermal conductivity (212.23 K, 26847 kPa): 0.0801 ± 0.0016 W/m/K
- thermal conductivity (212.23 K, 34793 kPa): 0.08106 ± 0.0017 W/m/K
- thermal conductivity (212.23 K, 34794 kPa): 0.08097 ± 0.0017 W/m/K
- thermal conductivity (212.23 K, 43021 kPa): 0.08227 ± 0.0017 W/m/K
- thermal conductivity (212.24 K, 12668 kPa): 0.07725 ± 0.0016 W/m/K
- thermal conductivity (212.24 K, 19437 kPa): 0.07855 ± 0.0016 W/m/K
- thermal conductivity (212.24 K, 26845 kPa): 0.07971 ± 0.0016 W/m/K
- thermal conductivity (212.25 K, 12667 kPa): 0.07727 ± 0.0016 W/m/K
- thermal conductivity (212.26 K, 5796 kPa): 0.07549 ± 0.0015 W/m/K
- thermal conductivity (212.27 K, 173 kPa): 0.0737 ± 0.0015 W/m/K
- thermal conductivity (212.27 K, 5805 kPa): 0.07454 ± 0.0015 W/m/K
- thermal conductivity (212.28 K, 168 kPa): 0.07378 ± 0.0015 W/m/K
- thermal conductivity (212.61 K, 67097 kPa): 0.08653 ± 0.0018 W/m/K
- thermal conductivity (212.61 K, 67117 kPa): 0.08664 ± 0.0018 W/m/K
- thermal conductivity (212.62 K, 52074 kPa): 0.0837 ± 0.0017 W/m/K
- thermal conductivity (212.62 K, 60785 kPa): 0.08529 ± 0.0018 W/m/K
- thermal conductivity (212.62 K, 60787 kPa): 0.08543 ± 0.0018 W/m/K
- thermal conductivity (212.63 K, 52063 kPa): 0.08349 ± 0.0017 W/m/K
- thermal conductivity (212.68 K, 43009 kPa): 0.08278 ± 0.0017 W/m/K
